Results on 2 substances are retold here after patent US7399746B2, “Agents for wound healing” (McGill University, priority 2004, dated 2008).

The test system of test [1] is primary human skin fibroblasts. In words: in vitro wound healing, monolayer of skin fibroblasts. It is filed as cell-based. The note with it: FIG. 1B; for wound reduction: serum-free medium, two days. Here is the method:
(§1) Wound healing was measured using an art-established monolayer cell culture method (Nwomeh, et al. (1998) supra). Cells to be studied were plated in 48-well tissue culture plates at a cell density appropriate for obtaining confluent monolayers after one day in culture. Circular wounds were made in the center of the wells by placing a siliconized 200 μL tip into the well and lifting the cells from the plastic by applying suction. The successful creation of wounds was analysed using a phase contrast microscope. Cells were subsequently treated with control media or media containing the factors to be tested. The size of the wounds was immediately recorded for each well. The wounds were large enough to allow for a long-term incubation thereby improving the accuracy of the determinations. After one or two days in culture (depending on the cells studied), the size of the wounds was measured again. Wound dimensions were evaluated with a Leica MZFL11 stereo microscope. Computer images of the wounds were recorded with imaging software and contours of each wound before and after treatment were traced manually. Collections of contours for all wounds were converted to BMP files and quantitated using the Band-Leader program. The results were expressed as % reduction of wounds taking as 100% the reduction obtained in control cell cultures. No change corresponded to 0%, whereas complete closure corresponded to 100%. This system works well with close monitoring of cell densities. To prevent excess cell growth, the incubations were performed in serum-free medium supplemented with a single protein, transferrin (5 μg/mL). The absence of serum slowed down the healing process (one day in LLC-PK1 cells, two days in all other cultures), but reflected more accurately the situation likely to prevail in topical applications in vivo. Wound closure depends on the migration of cells at the sites of the wound and on cell proliferation. In these experiments, wound closure was being analysed, independent of the mechanism involved.
Cells analysed in the in vitro assay disclosed herein included monolayers of LLC-PK1 cells, a porcine kidney epithelial cell line used as an experimental system of wound healing for acute renal failure (Sponsel, et al. (1994) supra); monolayers of primary human skin fibroblasts; and monolayers of human skin keratinocytes. […] This made measurements of keratinocyte wound closure particularly difficult and time consuming. According, wound closure measurements of a cross created with two perpendicular cell lesions was particularly effective for analysing human skin keratinocytes (Sponsel, et al. (1994) supra).

The subject of test [2] is LLC-PK1 cells, a porcine kidney epithelial cell line. In words: in vitro wound healing, monolayer of kidney epithelial cells. It is filed as cell-based. Particulars: FIG. 1A. Here is the method:
as §1, with “The wounds were large enough to allow for a long-term incubation thereby improving the accuracy of the determinations.” left out, “No change corresponded to 0%, whereas complete closure corresponded to 100%. This system works well with close monitoring of cell densities. To prevent excess cell growth, the incubations were performed in serum-free medium supplemented with a single protein, transferrin (5 μg/mL). The absence of serum slowed down the healing process (one day in LLC-PK1 cells, two days in all other cultures), but reflected more accurately the situation likely to prevail in topical applications in vivo. Wound closure depends on the migration of cells at the sites of the wound and on cell proliferation.” left out, “involved. […]” for “involved.”

In test [3] the test system is human skin keratinocytes. In words: in vitro wound healing, monolayer of skin keratinocytes. It is filed as cell-based. Particulars: FIG. 1C. Here is the method: as §1, with “The absence of serum slowed down the healing process (one day in LLC-PK1 cells, two days in all other cultures), but reflected more accurately the situation likely to prevail in topical applications in vivo. Wound closure depends on the migration of cells at the sites of the wound and on cell proliferation.” left out
Cells analysed in the in vitro assay disclosed herein included monolayers of LLC-PK1 cells, a porcine kidney epithelial cell line used as an experimental system of wound healing for acute renal failure (Sponsel, et al. (1994) supra); monolayers of primary human skin fibroblasts; and monolayers of human skin keratinocytes. […]

The next test concerns kidney epithelial cells. In words: cell proliferation, Alamar blue, kidney epithelial cells. It is filed as cell-based, porcine. Particulars: two days, FIG. 2A. Here is the method:
(§2) The effects of IGF-API, API and C26 on cell proliferation were also evaluated using the art-established Alamar blue technique developed for hematopoietic cells or endothelial cells (DiFalco, et al. (1997) Biochem. J. 326:407-13; DiFalco & Congote (2002) Cytokine 18 (1):51-60; Sandoval, et al. (2002) supra). Five thousand cells per well were plated in 96-well plates and grown over night in complete cell culture medium. The cells were subsequently starved for one day in serum-free medium supplemented with 5 μg/mL bovine transferrin and 200 μg/mL fatty-acid free, tissue culture-tested, bovine serum albumin and incubated for two days in the presence of the API derivatives indicated. For experiments with the hepatoma cell line, Hep G2, only 3000 cells were plated per well.
A general note: Alamar Blue is a resazurin reagent that responds to reducing activity.

In test [4] the test system is human skin fibroblast cultures. In words: cell proliferation, Alamar blue, skin fibroblasts. It is filed as cell-based. Particulars: two days, FIG. 2B. Here is the method:
as §2

Test [5] has as its system hepatoma cell line Hep G2. In words: cell proliferation, Alamar blue, Hep G2. Particulars: Hep G2, 20 μM, FIG. 3B (n=21, p<0.001 for C26). It is filed as cell-based. Here is the method: as §2
(§3) Cell proliferation with EGF and C26 was also analysed for keratinocytes and Hep G2 cells. The number of experiments using keratinocytes with EGF was five, and 10 to 11 with C26. The number of experiments using Hep G2 with EGF and C26 was five, except for 20 nM EGF (n=8, P<0.05, paired t-test) and for 20 μM C26 (n=21, p<0.001, paired t-test and Student-Newman-Keuls test). All other P values were according to the Student-Newman-Keul multiple comparisons test.

For test [6], the system named is human skin keratinocytes. In words: cell proliferation, Alamar blue, keratinocytes. It is filed as cell-based. Here is the method: as §2, §3

As for “API: alpha-1 proteinase inhibitor, also known as alpha-1-antitrypsin, the major physiological inhibitor of neutrophil elastase”, in test [1], the “concentration with significant effect on wound reduction” value was 0.02 µM and the wound reduction result was “significant, but lower than the effects obtained with IGF-API”. Further, in test [2], the “concentration at which effective/active in wound reduction” value is recorded as 0.16 nM. Also, in the test on human skin keratinocytes [3], the “concentration with effect on wound reduction” value came to 8 nM and the wound reduction result was “marginal, but significant effect”.
For “C26: small peptide corresponding to the last 26 amino acids of API (SEQ ID NO:2) (PFVFLMIEQNTKSPLFMGKVVNPTQK)”, the cell proliferation result in the test with kidney epithelial cells is listed as “marginally stimulated cell proliferation”; in test [4], “marginally stimulated cell proliferation”; in test [5] it was “significantly increased cell proliferation”; in the test with human skin keratinocytes [6] (two days, FIG. 2C) it was “marginally stimulated cell proliferation”. Moreover, in test [1], the “concentration with significant effect on wound reduction” value was found to be 8 µM. Further, the wound reduction entry in test [1] is listed as “significant, but lower than the effects obtained with IGF-API”; in the test with human skin keratinocytes [3], “no significant effect”. The “concentration at which effective/active in wound reduction” value in test [2] was determined as 32 nM. In addition, the “cell proliferation compared to EGF” value with human skin keratinocytes [6] (equivalent concentrations of EGF, FIG. 3A) is recorded as “higher than the effects of equivalent concentrations of epidermal growth factor”.
